Measured values taken from US20220175774A1, “Bioavailable Oral Dosage Form Of Tyrosine-Kinase Inhibitor” (Alembic Pharmaceuticals Limited, priority 2020, published 2022).

Assay: Stability study according to ICH guidelines
Assay type: physicochemical
Experimental: The total impurity content is measured after synthesis of the compound and compared with the measured total impurity content after storage for a designated period of time. […] Stability studies were conducted, according to the ICH guidelines, for 6 months at accelerated condition (40° C./75% RH) and at room temperature.

- total impurity content after storage (about 6 months at about 40° c. and about 75% RH): less than 4%
- total impurity content (at 0 days): less than 3%
SMILES: Cc1nc(Nc2ncc(C(=O)Nc3c(C)cccc3Cl)s2)cc(N2CCN(CCO)CC2)n1 [N-(2-chloro-6-methylphenyl)-2-[[6-[4-(2-hydroxyethyl)-1-piperazinyl]-2-methyl-4-pyrimidinyl]amino]-5-thiazolecarboxamide]
